From PubChem BioAssay (NCI)
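These data come from cells grown in 96-well plates and exposed to compound for 48 hours at five concentrations. TGI: total growth inhibition.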

What was measured:
Test in all cases: DTP human tumour cell line panel, 48 h
LOX IMVI melanoma = tested on: LOX IMVI melanoma
HOP-62 NSCLC = tested on: HOP-62 NSCLC
UO-31 renal = tested on: UO-31 renal
MCF7 breast = tested on: MCF7 breast
OVCAR-5 ovarian = tested on: OVCAR-5 ovarian
CCRF-CEM leukemia = tested on: CCRF-CEM leukemia
SN12C renal = tested on: SN12C renal
HCT-15 colon = tested on: HCT-15 colon
T-47D breast = tested on: T-47D breast
SK-MEL-2 melanoma = tested on: SK-MEL-2 melanoma
TK-10 renal = tested on: TK-10 renal
RPMI-8226 leukemia = tested on: RPMI-8226 leukemia
MDA-MB-435 = tested on: MDA-MB-435
K-562 leukemia = tested on: K-562 leukemia
SK-OV-3 ovarian = tested on: SK-OV-3 ovarian
SK-MEL-5 melanoma = tested on: SK-MEL-5 melanoma
OVCAR-8 ovarian = tested on: OVCAR-8 ovarian
MDA-N = tested on: MDA-N
SNB-75 CNS = tested on: SNB-75 CNS
HOP-92 NSCLC = tested on: HOP-92 NSCLC
KM12 colon = tested on: KM12 colon
CAKI-1 renal = tested on: CAKI-1 renal
EKVX NSCLC = tested on: EKVX NSCLC
OVCAR-4 ovarian = tested on: OVCAR-4 ovarian
NCI-H460 lung = tested on: NCI-H460 lung
MDA-MB-231 breast = tested on: MDA-MB-231 breast
BT-549 breast = tested on: BT-549 breast
SF-539 CNS = tested on: SF-539 CNS
SF-268 CNS = tested on: SF-268 CNS
DU-145 prostate = tested on: DU-145 prostate
A549 NSCLC = tested on: A549 NSCLC
M14 melanoma = tested on: M14 melanoma
MALME-3M melanoma = tested on: MALME-3M melanoma
UACC-257 melanoma = tested on: UACC-257 melanoma
COLO 205 colon = tested on: COLO 205 colon
SNB-19 CNS = tested on: SNB-19 CNS
HCT-116 colon = tested on: HCT-116 colon
SK-MEL-28 melanoma = tested on: SK-MEL-28 melanoma
A498 renal = tested on: A498 renal
PC-3 prostate = tested on: PC-3 prostate
NCI-H23 lung = tested on: NCI-H23 lung
MOLT-4 leukemia = tested on: MOLT-4 leukemia
HS 578T breast = tested on: HS 578T breast
NCI/ADR-RES ovarian = tested on: NCI/ADR-RES ovarian
U251 CNS = tested on: U251 CNS
HCC-2998 colon = tested on: HCC-2998 colon
UACC-62 melanoma = tested on: UACC-62 melanoma
SF-295 CNS = tested on: SF-295 CNS
ACHN renal = tested on: ACHN renal
SW-620 colon = tested on: SW-620 colon
OVCAR-3 ovarian = tested on: OVCAR-3 ovarian
RXF 393 renal = tested on: RXF 393 renal
SR leukemia = tested on: SR leukemia
NCI-H226 lung = tested on: NCI-H226 lung
HL-60(TB) leukemia = tested on: HL-60(TB) leukemia
HT29 colon = tested on: HT29 colon
NCI-H522 lung = tested on: NCI-H522 lung
IGROV1 ovarian = tested on: IGROV1 ovarian
786-0 renal = tested on: 786-0 renal

COc1cc(CNCc2cc(OC)c(OC)c(OC)c2)cc(OC)c1OC
TGI (LOX IMVI melanoma): > 10 µM | TGI (HOP-62 NSCLC): > 10 µM | TGI (UO-31 renal): > 10 µM | TGI (MCF7 breast): > 10 µM | TGI (OVCAR-5 ovarian): > 10 µM | TGI (CCRF-CEM leukemia): 5.86 µM | TGI (SN12C renal): > 10 µM | TGI (HCT-15 colon): > 10 µM | TGI (T-47D breast): > 10 µM | TGI (SK-MEL-2 melanoma): > 10 µM | TGI (TK-10 renal): > 10 µM | TGI (RPMI-8226 leukemia): > 10 µM | TGI (MDA-MB-435): > 10 µM | TGI (K-562 leukemia): > 7.36 µM | TGI (SK-OV-3 ovarian): > 10 µM | TGI (SK-MEL-5 melanoma): > 10 µM | TGI (OVCAR-8 ovarian): > 10 µM | TGI (MDA-N): > 10 µM | TGI (SNB-75 CNS): > 10 µM | TGI (HOP-92 NSCLC): > 10 µM | TGI (KM12 colon): > 10 µM | TGI (CAKI-1 renal): > 10 µM | TGI (EKVX NSCLC): > 10 µM | TGI (OVCAR-4 ovarian): > 10 µM | TGI (NCI-H460 lung): > 10 µM | TGI (MDA-MB-231 breast): > 10 µM | TGI (BT-549 breast): > 10 µM | TGI (SF-539 CNS): > 10 µM | TGI (SF-268 CNS): > 10 µM | TGI (DU-145 prostate): > 10 µM | TGI (A549 NSCLC): > 10 µM | TGI (M14 melanoma): > 10 µM | TGI (MALME-3M melanoma): > 10 µM | TGI (UACC-257 melanoma): > 10 µM | TGI (COLO 205 colon): > 10 µM | TGI (SNB-19 CNS): > 10 µM | TGI (HCT-116 colon): > 10 µM | TGI (SK-MEL-28 melanoma): > 10 µM | TGI (A498 renal): > 10 µM | TGI (PC-3 prostate): > 10 µM | TGI (NCI-H23 lung): > 10 µM | TGI (MOLT-4 leukemia): > 10 µM | TGI (HS 578T breast): > 10 µM | TGI (NCI/ADR-RES ovarian): > 10 µM | TGI (U251 CNS): > 10 µM | TGI (HCC-2998 colon): > 10 µM | TGI (UACC-62 melanoma): > 10 µM | TGI (SF-295 CNS): > 10 µM | TGI (ACHN renal): > 10 µM | TGI (SW-620 colon): > 10 µM | TGI (OVCAR-3 ovarian): > 10 µM | TGI (RXF 393 renal): > 10 µM | TGI (SR leukemia): > 9.12 µM | TGI (NCI-H226 lung): > 10 µM | TGI (HL-60(TB) leukemia): > 6.74 µM | TGI (HT29 colon): > 10 µM | TGI (NCI-H522 lung): > 6.46 µM | TGI (IGROV1 ovarian): > 10 µM | TGI (786-0 renal): > 10 µM

O=c1cc(-c2ccc(F)cc2)[nH]c2ncc(Cl)cc12
TGI (LOX IMVI melanoma): > 100 µM | TGI (HOP-62 NSCLC): > 93.2 µM | TGI (UO-31 renal): > 100 µM | TGI (MCF7 breast): > 100 µM | TGI (OVCAR-5 ovarian): > 100 µM | TGI (CCRF-CEM leukemia): 77.1 µM | TGI (SN12C renal): > 100 µM | TGI (HCT-15 colon): > 100 µM | TGI (T-47D breast): > 100 µM | TGI (SK-MEL-2 melanoma): > 100 µM | TGI (TK-10 renal): > 100 µM | TGI (RPMI-8226 leukemia): 62.4 µM | TGI (MDA-MB-435): 9.85 µM | TGI (K-562 leukemia): 32.6 µM | TGI (SK-OV-3 ovarian): > 100 µM | TGI (SK-MEL-5 melanoma): > 100 µM | TGI (OVCAR-8 ovarian): > 100 µM | TGI (MDA-N): 7.91 µM | TGI (SNB-75 CNS): 48.7 µM | TGI (HOP-92 NSCLC): 65.4 µM | TGI (KM12 colon): > 100 µM | TGI (CAKI-1 renal): > 100 µM | TGI (EKVX NSCLC): > 100 µM | TGI (OVCAR-4 ovarian): > 100 µM | TGI (NCI-H460 lung): > 100 µM | TGI (MDA-MB-231 breast): > 100 µM | TGI (BT-549 breast): > 100 µM | TGI (SF-539 CNS): 97.8 µM | TGI (SF-268 CNS): > 100 µM | TGI (DU-145 prostate): > 74.4 µM | TGI (A549 NSCLC): > 100 µM | TGI (M14 melanoma): > 100 µM | TGI (MALME-3M melanoma): > 100 µM | TGI (UACC-257 melanoma): > 100 µM | TGI (COLO 205 colon): > 100 µM | TGI (SNB-19 CNS): > 100 µM | TGI (HCT-116 colon): > 61.3 µM | TGI (SK-MEL-28 melanoma): > 100 µM | TGI (A498 renal): 53.6 µM | TGI (PC-3 prostate): > 100 µM | TGI (NCI-H23 lung): > 100 µM | TGI (MOLT-4 leukemia): > 85.6 µM | TGI (HS 578T breast): 85 µM | TGI (NCI/ADR-RES ovarian): > 88 µM | TGI (U251 CNS): > 83.4 µM | TGI (HCC-2998 colon): > 100 µM | TGI (UACC-62 melanoma): > 100 µM | TGI (SF-295 CNS): 78.5 µM | TGI (ACHN renal): > 100 µM | TGI (SW-620 colon): > 100 µM | TGI (OVCAR-3 ovarian): > 70.5 µM | TGI (RXF 393 renal): 89.2 µM | TGI (SR leukemia): 23.7 µM | TGI (NCI-H226 lung): > 56 µM | TGI (HL-60(TB) leukemia): 15.3 µM | TGI (HT29 colon): > 100 µM | TGI (NCI-H522 lung): 80.4 µM | TGI (IGROV1 ovarian): > 100 µM | TGI (786-0 renal): > 100 µM
